# From patent US20260250318A1, “COMPOSITIONS AND METHODS FOR CROSSING THE BLOOD BRAIN BARRIER” (VOYAGER THERAPEUTICS, INC., priority 2022, published 2026)
# Test system: brains, heart, liver, muscle, and DRG of the NHPs
# Test: Maturation of TTM-001 and TTM-002 capsids, NGS enrichment in NHP tissues
# Type: in vivo
# Conditions: NGS, relative to AAV9 control; for Fold Enrichment relative to AAV9, Liver RNA (NHP): TTM-001 and TTM-002 matured AAV capsid variants
# Excerpt: This Example describes maturation of the AAV9 capsid variants, TTM-001 (SEQ ID NO: 981 (amino acid) and 983 (DNA), comprising SEQ ID NO: 941 (encoded by SEQ ID NO: 942)) and TTM-002 (SEQ ID NO: 982 (amino acid) and 984 (DNA), comprising SEQ ID NO: […] (encoded by SEQ ID NO: 944)) in NHPs to further enhance their transduction and biodistribution in the central nervous system as well as other tissues, and evolve the AAV capsid variants to provide further cross-species compatibility. Two approaches were used to mature the TTM-001 and TTM-002 capsid sequences in order to randomize and mutate within and around the peptide insert comprised within loop IV of the capsid variant. […] In the first maturation approach, sets of three contiguous amino acids were randomized across the mutagenesis region in the TTM-001 and TTM-002 sequences, which spanned from position 450 to position 466, numbered according to SEQ ID NO: 981 and 982. In the second maturation approach, mutagenic primers were used to introduce point mutations at a low frequency, scattered across the mutagenesis region in the TTM-001 and TTM-002 sequences ranging from position 449 to position 466, numbered according to SEQ ID NO: 981 and 982. AAV capsid variants arising from each maturation approach for TTM-001 and TTM-002 were pooled together, for subsequent testing and characterization in NHPs.
# The library of pooled matured AAV capsid variants generated using the first maturation approach and the second maturation approach for the TTM-001 and TTM-002 AAV capsid variants were injected into two NHPs. […] Following RNA recovery and RT-PCR amplification, a systematic NGS enrichment analysis was performed to calculate the fold enrichment ratio relative to an AAV9 control, and the peptides comprised within the variants were identified.
# Following the RNA recovery and NGS analysis from the second maturation approach, approximately 680,000 capsid variants were identified. The 680,000 matured capsid variants were then filtered based on samples with a raw virus count greater than 10 and a coefficient of variance (CV) of less than 1, which was calculated for each peptide across the brain samples taken from the two NHPs. […] Using this filtering criteria, this led to approximately 64,000 matured capsid variants.
sequence,measurement,value
KTINGSGSPHSGCQNQQT,"Fold Enrichment relative to AAV9, DRG (NHP)",0.000 fold
same,"Fold Enrichment relative to AAV9, Brain (NHP)",0.000 fold
same,"Fold Enrichment relative to AAV9, Heart (NHP)",0.000 fold
same,"Fold Enrichment relative to AAV9, Liver DNA (NHP)",1.981 fold
same,"Fold Enrichment relative to AAV9, Liver RNA (NHP)",24.818 fold
same,"Fold Enrichment relative to AAV9, Muscle (NHP)",0.000 fold
KTINGSGSPHSKACSRQT,"Fold Enrichment relative to AAV9, DRG (NHP)",0.000 fold
same,"Fold Enrichment relative to AAV9, Brain (NHP)",0.000 fold
same,"Fold Enrichment relative to AAV9, Heart (NHP)",0.000 fold
same,"Fold Enrichment relative to AAV9, Liver DNA (NHP)",2.468 fold
same,"Fold Enrichment relative to AAV9, Liver RNA (NHP)",42.696 fold
same,"Fold Enrichment relative to AAV9, Muscle (NHP)",0.000 fold
KTICGRGSPHSKAQNQQT,"Fold Enrichment relative to AAV9, DRG (NHP)",0.000 fold
same,"Fold Enrichment relative to AAV9, Brain (NHP)",0.000 fold
same,"Fold Enrichment relative to AAV9, Heart (NHP)",0.000 fold
same,"Fold Enrichment relative to AAV9, Liver DNA (NHP)",2.171 fold
same,"Fold Enrichment relative to AAV9, Liver RNA (NHP)",18.923 fold
same,"Fold Enrichment relative to AAV9, Muscle (NHP)",0.000 fold
KTINGSGSPHYGIQNQQT,"Fold Enrichment relative to AAV9, DRG (NHP)",0.000 fold
same,"Fold Enrichment relative to AAV9, Brain (NHP)",0.000 fold
same,"Fold Enrichment relative to AAV9, Heart (NHP)",0.000 fold
same,"Fold Enrichment relative to AAV9, Liver DNA (NHP)",1.076 fold
same,"Fold Enrichment relative to AAV9, Liver RNA (NHP)",30.908 fold
same,"Fold Enrichment relative to AAV9, Muscle (NHP)",0.000 fold
KTINGSGSPHSMYMNQQT,"Fold Enrichment relative to AAV9, DRG (NHP)",0.000 fold
same,"Fold Enrichment relative to AAV9, Brain (NHP)",0.000 fold
same,"Fold Enrichment relative to AAV9, Heart (NHP)",0.000 fold
same,"Fold Enrichment relative to AAV9, Liver DNA (NHP)",5.840 fold
same,"Fold Enrichment relative to AAV9, Liver RNA (NHP)",81.106 fold
same,"Fold Enrichment relative to AAV9, Muscle (NHP)",0.000 fold
KTINGSGSPHSGACNQQT,"Fold Enrichment relative to AAV9, DRG (NHP)",0.000 fold
same,"Fold Enrichment relative to AAV9, Brain (NHP)",0.000 fold
same,"Fold Enrichment relative to AAV9, Heart (NHP)",0.000 fold
same,"Fold Enrichment relative to AAV9, Liver DNA (NHP)",3.215 fold
same,"Fold Enrichment relative to AAV9, Liver RNA (NHP)",39.163 fold
same,"Fold Enrichment relative to AAV9, Muscle (NHP)",4733.916 fold
KTINGSGSPHLVYQNQQT,"Fold Enrichment relative to AAV9, DRG (NHP)",0.000 fold
same,"Fold Enrichment relative to AAV9, Brain (NHP)",0.000 fold
same,"Fold Enrichment relative to AAV9, Heart (NHP)",0.000 fold
same,"Fold Enrichment relative to AAV9, Liver DNA (NHP)",1.045 fold
same,"Fold Enrichment relative to AAV9, Liver RNA (NHP)",14.196 fold
same,"Fold Enrichment relative to AAV9, Muscle (NHP)",0.000 fold
KTINGSRSPHAWAQNQQT (peptide inserted in AAV capsid),"Fold Enrichment relative to AAV9, DRG (NHP)",0.000 fold
same,"Fold Enrichment relative to AAV9, Brain (NHP)",0.000 fold
same,"Fold Enrichment relative to AAV9, Heart (NHP)",0.000 fold
same,"Fold Enrichment relative to AAV9, Liver DNA (NHP)",6.838 fold
same,"Fold Enrichment relative to AAV9, Liver RNA (NHP)",31.146 fold
same,"Fold Enrichment relative to AAV9, Muscle (NHP)",0.000 fold
KRFSGSGSPHSKAQNQQT,"Fold Enrichment relative to AAV9, DRG (NHP)",0.000 fold
same,"Fold Enrichment relative to AAV9, Brain (NHP)",0.000 fold
same,"Fold Enrichment relative to AAV9, Heart (NHP)",0.000 fold
same,"Fold Enrichment relative to AAV9, Liver DNA (NHP)",1.358 fold
same,"Fold Enrichment relative to AAV9, Liver RNA (NHP)",11.024 fold
same,"Fold Enrichment relative to AAV9, Muscle (NHP)",0.000 fold
KRSYGSGSPHSKAQNQQT,"Fold Enrichment relative to AAV9, DRG (NHP)",0.000 fold
same,"Fold Enrichment relative to AAV9, Brain (NHP)",0.000 fold
same,"Fold Enrichment relative to AAV9, Heart (NHP)",0.000 fold
same,"Fold Enrichment relative to AAV9, Liver DNA (NHP)",2.841 fold
same,"Fold Enrichment relative to AAV9, Liver RNA (NHP)",22.474 fold
same,"Fold Enrichment relative to AAV9, Muscle (NHP)",0.000 fold
KTINGSGSPHSFQINQQT,"Fold Enrichment relative to AAV9, DRG (NHP)",0.000 fold
same,"Fold Enrichment relative to AAV9, Brain (NHP)",0.308 fold
same,"Fold Enrichment relative to AAV9, Heart (NHP)",1.568 fold
same,"Fold Enrichment relative to AAV9, Liver DNA (NHP)",0.269 fold
same,"Fold Enrichment relative to AAV9, Liver RNA (NHP)",17.418 fold
same,"Fold Enrichment relative to AAV9, Muscle (NHP)",0.000 fold
KTINGSGSPHSKAFSWQT,"Fold Enrichment relative to AAV9, DRG (NHP)",0.000 fold
same,"Fold Enrichment relative to AAV9, Brain (NHP)",0.000 fold
same,"Fold Enrichment relative to AAV9, Heart (NHP)",0.000 fold
same,"Fold Enrichment relative to AAV9, Liver DNA (NHP)",1.805 fold
same,"Fold Enrichment relative to AAV9, Liver RNA (NHP)",51.304 fold
same,"Fold Enrichment relative to AAV9, Muscle (NHP)",0.000 fold
KTINGSGSPHFPWQNQQT,"Fold Enrichment relative to AAV9, DRG (NHP)",0.000 fold
same,"Fold Enrichment relative to AAV9, Brain (NHP)",0.000 fold
same,"Fold Enrichment relative to AAV9, Heart (NHP)",0.000 fold
same,"Fold Enrichment relative to AAV9, Liver DNA (NHP)",1.731 fold
same,"Fold Enrichment relative to AAV9, Liver RNA (NHP)",53.587 fold
same,"Fold Enrichment relative to AAV9, Muscle (NHP)",0.000 fold
KTINGSGSPHSWAPNQQT,"Fold Enrichment relative to AAV9, DRG (NHP)",0.000 fold
same,"Fold Enrichment relative to AAV9, Brain (NHP)",0.000 fold
same,"Fold Enrichment relative to AAV9, Heart (NHP)",0.000 fold
same,"Fold Enrichment relative to AAV9, Liver DNA (NHP)",1.789 fold
same,"Fold Enrichment relative to AAV9, Liver RNA (NHP)",47.897 fold
same,"Fold Enrichment relative to AAV9, Muscle (NHP)",0.000 fold
KTINGSGSPHSKACISQT,"Fold Enrichment relative to AAV9, DRG (NHP)",0.000 fold
same,"Fold Enrichment relative to AAV9, Brain (NHP)",0.000 fold
same,"Fold Enrichment relative to AAV9, Heart (NHP)",0.000 fold
same,"Fold Enrichment relative to AAV9, Liver DNA (NHP)",0.240 fold
same,"Fold Enrichment relative to AAV9, Liver RNA (NHP)",17.371 fold
same,"Fold Enrichment relative to AAV9, Muscle (NHP)",0.000 fold
KTINGSGSPHSRMRNQQT,"Fold Enrichment relative to AAV9, DRG (NHP)",0.000 fold
same,"Fold Enrichment relative to AAV9, Brain (NHP)",0.000 fold
same,"Fold Enrichment relative to AAV9, Heart (NHP)",0.000 fold
same,"Fold Enrichment relative to AAV9, Liver DNA (NHP)",2.816 fold
same,"Fold Enrichment relative to AAV9, Liver RNA (NHP)",48.902 fold
same,"Fold Enrichment relative to AAV9, Muscle (NHP)",0.000 fold
KTINGSGSPHSKKVFQQT,"Fold Enrichment relative to AAV9, DRG (NHP)",0.000 fold
same,"Fold Enrichment relative to AAV9, Brain (NHP)",0.000 fold
same,"Fold Enrichment relative to AAV9, Heart (NHP)",0.000 fold
same,"Fold Enrichment relative to AAV9, Liver DNA (NHP)",4.480 fold
same,"Fold Enrichment relative to AAV9, Liver RNA (NHP)",43.747 fold
same,"Fold Enrichment relative to AAV9, Muscle (NHP)",0.000 fold
KTINGSGSPHSKAPRRQT,"Fold Enrichment relative to AAV9, DRG (NHP)",0.000 fold
same,"Fold Enrichment relative to AAV9, Brain (NHP)",0.000 fold
same,"Fold Enrichment relative to AAV9, Heart (NHP)",0.000 fold
same,"Fold Enrichment relative to AAV9, Liver DNA (NHP)",3.940 fold
same,"Fold Enrichment relative to AAV9, Liver RNA (NHP)",21.645 fold
same,"Fold Enrichment relative to AAV9, Muscle (NHP)",0.000 fold
KTIFDCGSPHSKAQNQQT,"Fold Enrichment relative to AAV9, DRG (NHP)",0.000 fold
same,"Fold Enrichment relative to AAV9, Brain (NHP)",0.000 fold
same,"Fold Enrichment relative to AAV9, Heart (NHP)",0.000 fold
same,"Fold Enrichment relative to AAV9, Liver DNA (NHP)",1.602 fold
same,"Fold Enrichment relative to AAV9, Liver RNA (NHP)",27.844 fold
same,"Fold Enrichment relative to AAV9, Muscle (NHP)",0.000 fold
KTINGSGSPHSKWKSQQT,"Fold Enrichment relative to AAV9, DRG (NHP)",0.000 fold
same,"Fold Enrichment relative to AAV9, Brain (NHP)",0.000 fold
same,"Fold Enrichment relative to AAV9, Heart (NHP)",4.904 fold
same,"Fold Enrichment relative to AAV9, Liver DNA (NHP)",1.239 fold
same,"Fold Enrichment relative to AAV9, Liver RNA (NHP)",20.390 fold
same,"Fold Enrichment relative to AAV9, Muscle (NHP)",0.163 fold
